From ChEMBL document CHEMBL1671626, “In vitro profiling of ceftaroline against a collection of recent bacterial clinical isolates from across the United States” (2008)
In brackets after ≈: the same amount, converted by molar mass.

Legend:
Assay type in all cases: functional
[1] = tested on: Streptococcus agalactiae; experiment: Antibacterial activity against erythromycin-susceptible Streptococcus agalactiae by CLSI M7-A7 broth microdilution method
[2] = tested on: Haemophilus influenzae; experiment: Antibacterial activity against beta lactamase-negative Haemophilus influenzae assessed as susceptible isolates by CLSI M7-A7 broth microdilution method
[3] = tested on: Streptococcus pneumoniae; experiment: Antibacterial activity against penicillin-susceptible Streptococcus pneumoniae by CLSI M7-A7 broth microdilution method
[4] = tested on: Streptococcus pneumoniae; experiment: Antibacterial activity against penicillin-resistant Streptococcus pneumoniae assessed as susceptible isolates by CLSI M7-A7 broth microdilution method
[5] = tested on: Klebsiella pneumoniae; experiment: Antibacterial activity against ceftazidime-susceptible Klebsiella pneumoniae assessed as resistant isolates by CLSI M7-A7 broth microdilution method
[6] = tested on: Streptococcus viridans; experiment: Antibacterial activity against penicillin-susceptible Streptococcus viridans by CLSI M7-A7 broth microdilution method
[7] = tested on: Acinetobacter; experiment: Antibacterial activity against multidrug-resistant Acinetobacter assessed as susceptible isolates by CLSI M7-A7 broth microdilution method
[8] = tested on: Klebsiella pneumoniae; experiment: Antibacterial activity against ceftazidime-susceptible Klebsiella pneumoniae by CLSI M7-A7 broth microdilution method
[9] = tested on: Staphylococcus aureus; experiment: Antibacterial activity against methicillin-resistant Staphylococcus aureus assessed as resistant isolates by CLSI M7-A7 broth microdilution method
[10] = tested on: Serratia marcescens; experiment: Antibacterial activity against ceftazidime-susceptible Serratia marcescens by CLSI M7-A7 broth microdilution method
[11] = tested on: Streptococcus viridans; experiment: Antibacterial activity against penicillin-susceptible Streptococcus viridans assessed as resistant isolates by CLSI M7-A7 broth microdilution method
[12] = tested on: Moraxella catarrhalis; experiment: Antibacterial activity against beta lactamase-positive Moraxella catarrhalis by CLSI M7-A7 broth microdilution method
[13] = tested on: Escherichia coli; experiment: Antibacterial activity against ceftazidime-nonsusceptible Escherichia coli assessed as susceptible isolates by CLSI M7-A7 broth microdilution method
[14] = tested on: Streptococcus pyogenes; experiment: Antibacterial activity against erythromycin-susceptible Streptococcus pyogenes assessed as susceptible isolates by CLSI M7-A7 broth microdilution method
[15] = tested on: Klebsiella pneumoniae; experiment: Antibacterial activity against ceftazidime-nonsusceptible Klebsiella pneumoniae assessed as susceptible isolates by CLSI M7-A7 broth microdilution method
[16] = tested on: Enterobacter cloacae; experiment: Antibacterial activity against ceftazidime-susceptible Enterobacter cloacae by CLSI M7-A7 broth microdilution method
[17] = tested on: Escherichia coli; experiment: Antibacterial activity against ceftazidime-susceptible Escherichia coli by CLSI M7-A7 broth microdilution method
[18] = tested on: Enterobacteriaceae; experiment: Antibacterial activity against ceftazidime-nonsusceptible Enterobacteriaceae assessed as resistant isolates by CLSI M7-A7 broth microdilution method
[19] = tested on: Staphylococcus aureus; experiment: Antibacterial activity against methicillin-susceptible Staphylococcus aureus assessed as susceptible isolates by CLSI M7-A7 broth microdilution method
[20] = tested on: Acinetobacter; experiment: Antibacterial activity against imipenem-susceptible Acinetobacter by CLSI M7-A7 broth microdilution method
[21] = tested on: Streptococcus pyogenes; experiment: Antibacterial activity against erythromycin-nonsusceptible Streptococcus pyogenes assessed as susceptible isolates by CLSI M7-A7 broth microdilution method
[22] = tested on: Citrobacter freundii; experiment: Antibacterial activity against ceftazidime-nonsusceptible Citrobacter freundii by CLSI M7-A7 broth microdilution method
[23] = tested on: Acinetobacter; experiment: Antibacterial activity against imipenem-susceptible Acinetobacter assessed as resistant isolates by CLSI M7-A7 broth microdilution method
[24] = tested on: Staphylococcus aureus; experiment: Antibacterial activity against coagulase-negative and oxacillin-susceptible Staphylococcus aureus assessed as susceptible isolates by CLSI M7-A7 broth microdilution method
[25] = tested on: Providencia sp.; experiment: Antibacterial activity against ceftazidime-susceptible Providencia sp. by CLSI M7-A7 broth microdilution method
[26] = tested on: Enterococcus faecalis; experiment: Antibacterial activity against vancomycin-susceptible Enterococcus faecalis by CLSI M7-A7 broth microdilution method
[27] = tested on: Pasteurella multocida; experiment: Antibacterial activity against Pasteurella multocida assessed as susceptible isolates by CLSI M7-A7 broth microdilution method
[28] = tested on: Staphylococcus aureus; experiment: Antibacterial activity against methicillin-susceptible Staphylococcus aureus assessed as resistant isolates by CLSI M7-A7 broth microdilution method
[29] = tested on: Staphylococcus aureus; experiment: Antibacterial activity against coagulase-negative and oxacillin-susceptible Staphylococcus aureus assessed as resistant isolates by CLSI M7-A7 broth microdilution method
[30] = tested on: Enterobacter cloacae; experiment: Antibacterial activity against ceftazidime-susceptible Enterobacter cloacae assessed as susceptible isolates by CLSI M7-A7 broth microdilution method
[31] = tested on: Escherichia coli; experiment: Antibacterial activity against ceftazidime-susceptible Escherichia coli assessed as resistant isolates by CLSI M7-A7 broth microdilution method
[32] = tested on: Klebsiella pneumoniae; experiment: Antibacterial activity against ceftazidime-susceptible Klebsiella pneumoniae assessed as susceptible isolates by CLSI M7-A7 broth microdilution method
[33] = tested on: Streptococcus agalactiae; experiment: Antibacterial activity against erythromycin-nonsusceptible Streptococcus agalactiae assessed as susceptible isolates by CLSI M7-A7 broth microdilution method
[34] = tested on: Streptococcus viridans; experiment: Antibacterial activity against penicillin-nonsusceptible Streptococcus viridans assessed as susceptible isolates by CLSI M7-A7 broth microdilution method
[35] = tested on: Staphylococcus aureus; experiment: Antibacterial activity against coagulase-negative and oxacillin-resistant Staphylococcus aureus by CLSI M7-A7 broth microdilution method
[36] = tested on: Enterobacteriaceae; experiment: Antibacterial activity against ceftazidime-susceptible Enterobacteriaceae assessed as susceptible isolates by CLSI M7-A7 broth microdilution method
[37] = tested on: Streptococcus agalactiae; experiment: Antibacterial activity against erythromycin-susceptible Streptococcus agalactiae assessed as susceptible isolates by CLSI M7-A7 broth microdilution method
[38] = tested on: Staphylococcus aureus; experiment: Antibacterial activity against coagulase-negative and oxacillin-resistant Staphylococcus aureus assessed as susceptible isolates by CLSI M7-A7 broth microdilution method
[39] = tested on: Streptococcus pyogenes; experiment: Antibacterial activity against erythromycin-susceptible Streptococcus pyogenes by CLSI M7-A7 broth microdilution method
[40] = tested on: Staphylococcus aureus; experiment: Antibacterial activity against coagulase-negative and oxacillin-susceptible Staphylococcus aureus by CLSI M7-A7 broth microdilution method
[41] = tested on: Staphylococcus aureus; experiment: Antibacterial activity against coagulase-negative and oxacillin-resistant Staphylococcus aureus assessed as resistant isolates by CLSI M7-A7 broth microdilution method
[42] = tested on: Acinetobacter; experiment: Antibacterial activity against imipenem-susceptible Acinetobacter assessed as susceptible isolates by CLSI M7-A7 broth microdilution method
[43] = tested on: Proteus mirabilis; experiment: Antibacterial activity against ceftazidime-susceptible Proteus mirabilis assessed as susceptible isolates by CLSI M7-A7 broth microdilution method
[44] = tested on: Morganella morganii; experiment: Antibacterial activity against ceftazidime-susceptible Morganella morganii assessed as resistant isolates by CLSI M7-A7 broth microdilution method

C[C@H]1COc2c(N3CCN(C)CC3)c(F)cc3c(=O)c(C(=O)O)cn1c23.C[C@H]1COc2c(N3CCN(C)CC3)c(F)cc3c(=O)c(C(=O)O)cn1c23.O [LEVOFLOXACIN]
MIC50 [1]: 0.5 µg/mL | MIC90 [1]: 1 µg/mL | Activity [2]: 100% | MIC50 [3]: 0.5 µg/mL | MIC90 [3]: 1 µg/mL | Activity [4]: 99.3% | Activity [5]: 1.4% | MIC50 [6]: 1 µg/mL | MIC90 [6]: 1 µg/mL | Activity [7]: 6.3% | MIC50 [8]: 0.06 µg/mL | MIC90 [8]: 0.25 µg/mL | Activity [9]: 73.2% | MIC50 [10]: 0.12 µg/mL | MIC90 [10]: 1 µg/mL | Activity [11]: 0% | MIC [12]: ≤ 0.03 µg/mL | MIC50 [12]: ≤ 0.03 µg/mL | MIC90 [12]: ≤ 0.03 µg/mL | Activity [13]: 14.3% | Activity [14]: 100% | Activity [15]: 37.9% | MIC [16]: ≤ 0.03 µg/mL | MIC50 [16]: ≤ 0.03 µg/mL | MIC90 [16]: 0.5 µg/mL | MIC50 [17]: ≤ 0.03 µg/mL | MIC90 [17]: 16 µg/mL | Activity [18]: 51.4% | Activity [19]: 83.9% | MIC50 [20]: 0.5 µg/mL | MIC90 [20]: > 16 µg/mL | Activity [21]: 100% | MIC50 [22]: 0.25 µg/mL | MIC90 [22]: 16 µg/mL | Activity [23]: 36.2% | Activity [24]: 81.6% | MIC50 [25]: 0.25 µg/mL | MIC90 [25]: > 16 µg/mL | MIC50 [26]: 1 µg/mL | MIC90 [26]: > 16 µg/mL | Activity [27]: 95.5% | Activity [28]: 15.2% | Activity [29]: 17.9% | Activity [30]: 94% | Activity [31]: 13.6% | Activity [32]: 98.1% | Activity [33]: 97.6% | Activity [34]: 92.9% | MIC50 [35]: 8 µg/mL | MIC90 [35]: > 16 µg/mL | Activity [36]: 89.6% | Activity [37]: 100% | Activity [38]: 21.7% | MIC50 [39]: 0.5 µg/mL | MIC90 [39]: 1 µg/mL | MIC50 [40]: 0.12 µg/mL | MIC90 [40]: 8 µg/mL | Activity [41]: 73.9% | Activity [42]: 51.1% | Activity [43]: 75.9% | Activity [44]: 20.6%

CO/N=C(\C(=O)N[C@@H]1C(=O)N2C(C(=O)O)=C(CSc3nc(=O)c(O)nn3C)CS[C@H]12)c1csc(N)n1 [CEFTRIAXONE]
MIC50 [1]: 0.06 µg/mL (≈ 0.108 µM) | MIC90 [1]: 0.12 µg/mL (≈ 0.216 µM) | Activity [2]: 100% | MIC50 [3]: 0.03 µg/mL (≈ 0.0541 µM) | MIC90 [3]: 0.06 µg/mL (≈ 0.108 µM) | Activity [4]: 79.4% | Activity [5]: 0% | MIC50 [6]: 0.06 µg/mL (≈ 0.108 µM) | MIC90 [6]: 0.25 µg/mL (≈ 0.451 µM) | Activity [7]: 0% | MIC [8]: ≤ 0.06 µg/mL | MIC50 [8]: ≤ 0.06 µg/mL | MIC90 [8]: 0.12 µg/mL (≈ 0.216 µM) | Activity [9]: 33.1% | MIC50 [10]: 0.25 µg/mL (≈ 0.451 µM) | MIC90 [10]: 4 µg/mL (≈ 7.21 µM) | Activity [11]: 0% | MIC [12]: ≤ 0.25 µg/mL | MIC50 [12]: ≤ 0.25 µg/mL | MIC90 [12]: 1 µg/mL (≈ 1.8 µM) | Activity [13]: 9.5% | Activity [14]: 100% | Activity [15]: 12.1% | MIC50 [16]: 0.12 µg/mL (≈ 0.216 µM) | MIC90 [16]: 1 µg/mL (≈ 1.8 µM) | MIC50 [17]: ≤ 0.06 µg/mL | MIC90 [17]: 0.12 µg/mL (≈ 0.216 µM) | Activity [18]: 0% | Activity [19]: 97.1% | MIC50 [20]: 16 µg/mL (≈ 28.9 µM) | MIC90 [20]: > 16 µg/mL | Activity [21]: 100% | MIC50 [22]: > 16 µg/mL | MIC90 [22]: > 16 µg/mL | Activity [23]: 0% | Activity [24]: 98% | MIC [25]: ≤ 0.06 µg/mL | MIC50 [25]: ≤ 0.06 µg/mL | MIC90 [25]: 2 µg/mL (≈ 3.61 µM) | MIC50 [26]: > 32 µg/mL | MIC90 [26]: > 32 µg/mL | Activity [27]: 100% | Activity [28]: 0.3% | Activity [29]: 0% | Activity [30]: 98% | Activity [31]: 0% | Activity [32]: 99.5% | Activity [33]: 97.6% | Activity [34]: 28.6% | MIC50 [35]: 16 µg/mL (≈ 28.9 µM) | MIC90 [35]: > 32 µg/mL | Activity [36]: 98% | Activity [37]: 100% | Activity [38]: 27.1% | MIC [39]: ≤ 0.015 µg/mL | MIC50 [39]: ≤ 0.015 µg/mL | MIC90 [39]: 0.03 µg/mL (≈ 0.0541 µM) | MIC50 [40]: 1 µg/mL (≈ 1.8 µM) | MIC90 [40]: 4 µg/mL (≈ 7.21 µM) | Activity [41]: 22.1% | Activity [42]: 44.7% | Activity [43]: 96.6% | Activity [44]: 0%
